According to patent publication US6613718B2, “Aryl ether derivatives and processes for their preparation and herbicidal and desiccant compositions containing them” (Ishihara Sangyo Kaisha, Ltd., priority 2001, dated 2003):

Experiments:
[1] = system: ivyleaf morningglory (Ipomoea hederacea, IPOHE); experiment: Post-emerge greenhouse herbicide activity screening, phytotoxicity rating; assay type: in vivo; details: 14 days after application
Outline: (§1)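 Compounds in acetone track-sprayed at 15–1000 g ai/ha, 187 l/ha, onto sandy loam pots sown one day before (pre-emerge) or on 2-3 leaf plants (post-emerge, plus 0.25% v/v non-ionic surfactant). Phytotoxicity rated at 14 days, 0 (no damage) to 100 (all plants dead).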

[2] = system: large crabgrass (Digitaria sanguinalis, DIGSA); experiment: as above; assay type: in vivo; details: 14 days after application
Outline: as §1

[3] = system: johnsongrass (Sorghum halepense, SORHA); experiment: as above; assay type: in vivo; details: 14 days after application
Outline: as §1

[4] = system: common ragweed (Ambrosia artemisiifolia L., AMBEL); experiment: as above; assay type: in vivo
Outline: as §1

[5] = system: sicklepod (Cassia obtusifolia, CASOB); experiment: as above; assay type: in vivo
Outline: as §1

[6] = system: barnyardgrass (Echinochloa crus-galli, ECHCG); experiment: as above; assay type: in vivo; details: 14 days after application
Outline: as §1

[7] = system: redroot pigweed (Amaranthus retroflexus, AMARE); experiment: as above; assay type: in vivo
Outline: as §1

[8] = system: velvetleaf (Abutilon theophrasti, ABUTH); experiment: as above; assay type: in vivo; details: 14 days after application
Outline: as §1

[9] = system: lambsquarters (Chenopodium album, CHEAL); experiment: as above; assay type: in vivo
Outline: as §1

[10] = system: green foxtail (Setaria viridis, SETVI); experiment: as above; assay type: in vivo
Outline: as §1

[11] = system: soybean (Glycine max L., var. Pella 86, SOY); experiment: Post-emerge greenhouse screening, crop safety (phytotoxicity rating); assay type: in vivo; details: 14 days after application
Outline: as §1

[12] = system: upland rice (Oryza sp., var.Tebonnet, RICE); experiment: as above; assay type: in vivo; details: 14 days after application
Outline: as §1

[13] = system: field corn (Zea mays L., var. Dekalb 535, CORN); experiment: Pre-emerge greenhouse screening, crop safety (phytotoxicity rating); assay type: in vivo; details: 14 days after application
Outline: as §1

[14] = system: soybean (Glycine max L., var. Pella 86, SOY); experiment: as above; assay type: in vivo; details: 14 days after application
Outline: as §1

[15] = system: upland rice (Oryza sp., var.Tebonnet, RICE); experiment: as above; assay type: in vivo; details: 14 days after application
Outline: as §1

[16] = Post-emerge greenhouse screening, crop safety / corn selectivity (phytotoxicity rating); assay type: in vivo, Zea mays L.; details: Zea mays (field corn), in vivo, 62.5 g ai/ha
Outline: as §1

[17] = system: field corn (Zea mays L., var. Dekalb 535, CORN); experiment: as above; assay type: in vivo; details: 14 days after application
Outline: as §1

[18] = system: ivyleaf morningglory (Ipomoea hederacea, IPOHE); experiment: Pre-emerge greenhouse herbicide activity screening, phytotoxicity rating; assay type: in vivo; details: 14 days after application
Outline: as §1

[19] = system: large crabgrass (Digitaria sanguinalis, DIGSA); experiment: as above; assay type: in vivo; details: 14 days after application
Outline: as §1

[20] = system: johnsongrass (Sorghum halepense, SORHA); experiment: as above; assay type: in vivo; details: 14 days after application
Outline: as §1

[21] = system: common ragweed (Ambrosia artemisiifolia L., AMBEL); experiment: as above; assay type: in vivo; details: 14 days after application
Outline: as §1

[22] = system: sicklepod (Cassia obtusifolia, CASOB); experiment: as above; assay type: in vivo; details: 14 days after application
Outline: as §1

[23] = system: barnyardgrass (Echinochloa crus-galli, ECHCG); experiment: as above; assay type: in vivo; details: 14 days after application
Outline: as §1

[24] = system: redroot pigweed (Amaranthus retroflexus, AMARE); experiment: as above; assay type: in vivo; details: 14 days after application
Outline: as §1

[25] = system: velvetleaf (Abutilon theophrasti, ABUTH); experiment: as above; assay type: in vivo; details: 14 days after application
Outline: as §1

[26] = system: lambsquarters (Chenopodium album, CHEAL); experiment: as above; assay type: in vivo; details: 14 days after application
Outline: as §1

[27] = system: green foxtail (Setaria viridis, SETVI); experiment: as above; assay type: in vivo; details: 14 days after application
Outline: as §1

[28] = 125 g ai/ha, 14 days after application
[29] = 250 g ai/ha, 14 days after application

Cn1nc(-c2cc(Oc3ncccn3)c(Cl)cc2F)c(Cl)c1[S+]([O-])C(F)F (stereo not drawn) [Compound 5-1]
IPOHE phytotoxicity rating (0-100 scale) ([1]; 125 g ai/ha): 100 | IPOHE phytotoxicity rating (0-100 scale) ([1]; 250 g ai/ha): 100 | DIGSA phytotoxicity rating (0-100 scale) ([2]; 125 g ai/ha): 50 | DIGSA phytotoxicity rating (0-100 scale) ([2]; 250 g ai/ha): 55 | SORHA phytotoxicity rating (0-100 scale) ([3]; 125 g ai/ha): 75 | SORHA phytotoxicity rating (0-100 scale) ([3]; 250 g ai/ha): 75 | AMBEL phytotoxicity rating (0-100 scale) ([4]; 31.3 g ai/ha): 50 | AMBEL phytotoxicity rating (0-100 scale) ([4]; 62.5 g ai/ha): 60 | AMBEL phytotoxicity rating (0-100 scale) [4, 28]: 65 | AMBEL phytotoxicity rating (0-100 scale) [4, 29]: 75 | CASOB phytotoxicity rating (0-100 scale) ([5]; 31.3 g ai/ha): 35 | CASOB phytotoxicity rating (0-100 scale) ([5]; 62.5 g ai/ha): 85 | CASOB phytotoxicity rating (0-100 scale) [5, 28]: 99 | CASOB phytotoxicity rating (0-100 scale) [5, 29]: 100 | ECHCG phytotoxicity rating (0-100 scale) ([6]; 125 g ai/ha): 75 | ECHCG phytotoxicity rating (0-100 scale) ([6]; 250 g ai/ha): 65 | AMARE phytotoxicity rating (0-100 scale) ([7]; 31.3 g ai/ha): 98 | AMARE phytotoxicity rating (0-100 scale) ([7]; 62.5 g ai/ha): 100 | AMARE phytotoxicity rating (0-100 scale) [7, 28]: 100 | AMARE phytotoxicity rating (0-100 scale) [7, 29]: 100 | ABUTH phytotoxicity rating (0-100 scale) ([8]; 125 g ai/ha): 100 | ABUTH phytotoxicity rating (0-100 scale) ([8]; 250 g ai/ha): 100 | CHEAL phytotoxicity rating (0-100 scale) ([9]; 31.3 g ai/ha): 100 | CHEAL phytotoxicity rating (0-100 scale) ([9]; 62.5 g ai/ha): 100 | CHEAL phytotoxicity rating (0-100 scale) [9, 28]: 100 | CHEAL phytotoxicity rating (0-100 scale) [9, 29]: 100 | SETVI phytotoxicity rating (0-100 scale) ([10]; 31.3 g ai/ha): 50 | SETVI phytotoxicity rating (0-100 scale) ([10]; 62.5 g ai/ha): 60 | SETVI phytotoxicity rating (0-100 scale) [10, 28]: 95 | SETVI phytotoxicity rating (0-100 scale) [10, 29]: 95 | SOY crop damage, phytotoxicity rating (0-100 scale) ([11]; 125 g ai/ha): 65 | SOY crop damage, phytotoxicity rating (0-100 scale) ([11]; 250 g ai/ha): 55 | RICE crop damage, phytotoxicity rating (0-100 scale) ([12]; 125 g ai/ha): 50 | RICE crop damage, phytotoxicity rating (0-100 scale) ([12]; 250 g ai/ha): 55 | CORN crop damage, phytotoxicity rating (0-100 scale) ([13]; 125 g ai/ha): 40 | CORN crop damage, phytotoxicity rating (0-100 scale) ([13]; 250 g ai/ha): 50 | SOY crop damage, phytotoxicity rating (0-100 scale) ([14]; 125 g ai/ha): 0 | SOY crop damage, phytotoxicity rating (0-100 scale) ([14]; 250 g ai/ha): 65 | RICE crop damage, phytotoxicity rating (0-100 scale) ([15]; 125 g ai/ha): 55 | RICE crop damage, phytotoxicity rating (0-100 scale) ([15]; 250 g ai/ha): 80 | corn phytotoxicity rating (0-100 scale) at 14 days [16]: 5 | CORN crop damage, phytotoxicity rating (0-100 scale) ([17]; 125 g ai/ha): 7 | CORN crop damage, phytotoxicity rating (0-100 scale) ([17]; 250 g ai/ha): 8 | IPOHE phytotoxicity rating (0-100 scale) ([18]; 125 g ai/ha): 99 | IPOHE phytotoxicity rating (0-100 scale) ([18]; 250 g ai/ha): 100 | DIGSA phytotoxicity rating (0-100 scale) ([19]; 125 g ai/ha): 100 | DIGSA phytotoxicity rating (0-100 scale) ([19]; 250 g ai/ha): 100 | SORHA phytotoxicity rating (0-100 scale) ([20]; 125 g ai/ha): 100 | SORHA phytotoxicity rating (0-100 scale) ([20]; 250 g ai/ha): 100 | AMBEL phytotoxicity rating (0-100 scale) ([21]; 125 g ai/ha): 75 | AMBEL phytotoxicity rating (0-100 scale) ([21]; 250 g ai/ha): 100 | CASOB phytotoxicity rating (0-100 scale) ([22]; 125 g ai/ha): 60 | CASOB phytotoxicity rating (0-100 scale) ([22]; 250 g ai/ha): 90 | ECHCG phytotoxicity rating (0-100 scale) ([23]; 125 g ai/ha): 100 | ECHCG phytotoxicity rating (0-100 scale) ([23]; 250 g ai/ha): 100 | AMARE phytotoxicity rating (0-100 scale) ([24]; 125 g ai/ha): 100 | AMARE phytotoxicity rating (0-100 scale) ([24]; 250 g ai/ha): 100 | ABUTH phytotoxicity rating (0-100 scale) ([25]; 125 g ai/ha): 99 | ABUTH phytotoxicity rating (0-100 scale) ([25]; 250 g ai/ha): 100 | CHEAL phytotoxicity rating (0-100 scale) ([26]; 125 g ai/ha): 100 | CHEAL phytotoxicity rating (0-100 scale) ([26]; 250 g ai/ha): 100 | SETVI phytotoxicity rating (0-100 scale) ([27]; 125 g ai/ha): 100 | SETVI phytotoxicity rating (0-100 scale) ([27]; 250 g ai/ha): 100
